Experimental data: US5124351A, “Pharmaceutical compositions for the treatment of cancers susceptible to treatment with the copper complex of S-(methylthio)-DL-homocysteine or the L-enantimorph thereof” (The United States of America as represented by the …, priority 1989, dated 1992)
pIC50: −log10 of the molar value. Read-outs that look alike come from different tables or passages of the source.

Columns and labels:
purine biosynthesis = details: literature; cited from earlier work
L1210 cells [1] = assay: Inhibition of growth of L1210 cells in culture (growth fraction); format: cell-based, murine; details: for protection from growth inhibition by copper-SMETH: copper-SMETH 15 and 30 μM; for pIC50: potentiation of growth inhibition by DL-SMETH 75 or 100 μM, estimated by interpolation, read-out: Conc. for 50% further inhibition; for potentiation of SMETH by other metal ions: 10 μM; for stereospecificity result with 10 μM copper sulfate: 10 μM instead of 50 μM copper; for activity at 50 µM: L1210, L-SMETH 50 μM, read-out: growth (percent of control)
Experimental: Cytotoxicity of SMETH was assessed as follows. Cells were harvested at mid-log phase (8-10×10^5 cells/ml) washed with fresh growth medium and resuspended at 1×10^5 cells per ml as determined by a model ZBI Coulter Counter (Coulter Electronics, Hialeah, Fla.). Suspensions (7 ml) were added to 25 cm^2 Corning flasks, and SMETH, 20 mM in water, with or without copper sulfate, 2 mM in water were added as dilutions in water at no greater than 10 μl/ml of the cell suspension.
(§1) Cells were grown at 37° C. for designated times in tightly stoppered flasks and cell density was determined as indicated above. Cell volume distribution was monitored with a C1000 Channelyzer with standard size latex particles (Coulter) as reference. The results are expressed as growth fraction (N--No/No) or as percent growth fraction compared to appropriate controls.
(The cells also were incubated for 40 hours).
1 with S-(methylthio)-DL-homocysteine DL-SMETH, (See curve .smallcircle.--.smallcircle. in FIG. 4) and with the pure L-enantiomorph, L-SMETH, (See curve -- in FIG. 4).

[2] = tested on: L1210 cells in primary culture; assay: Growth of L1210 cells in primary culture (obtained directly from the mouse) with copper; format: cell-based
Experimental: (The cells also were incubated for 40 hours). (See FIG. 3 of Mohindru, A., Fisher, J. M., and Rabinovitz, M. "2,9-Dimethyl-1,10-phenanthroline (neocuproine): A Potent, Copper-dependent Cytotoxin With Anti-tumor Activity.)" A concentration of 10 μM was more than adequate as a potentiating dose, but at this concentration other metal ions (Zn^++, Mn^++, CO^++, Ni^++, Cr^+++) were ineffective. […] Such cells fail to grow unless supplemented with an appropriate mercaptan or disulfide (See curve .smallcircle.--.smallcircle. in FIG. 3). […] Thus, both the organic and inorganic moieties of this invention show high specificity in this inhibition.

[3] = Cecil and McPhee; cited from earlier work
cellular methylations = details: cited from earlier work
L1210 cells [4] = assay: Cell volume of L1210 cells (Channelyzer); format: cell-based, murine; details: growth inhibition
Experimental: as §1
(To obtain the data in FIG. 5, the cells were incubated with S-(methylthio)-L-homocysteine 15 μM, (curve .smallcircle.--.smallcircle.) and 30 μM (curve -- )together with their corresponding concentrations of copper sulfate). […] To obtain the data in FIG. 6, the cells were incubated for 14 hours in the medium described in the above section entitled Growth And Its Inhibition In Cell Culture, but containing only 1 mM glutamine, 1/2 the normal concentration. […] At the end of the incubation, the cell density in the inhibited culture was determined, and &he entire population centrifuged for analysis. An aliquot containing an equal number of cells from the control culture was removed for comparison, and both samples processed and analyzed as described in the above section entitled Analysis of Nucleoside Triphosphate Pools. […]
To obtain the data in FIG. 7, cells were incubated under standard conditions with S-(methylthio)-L -homocysteine and copper sulfate, each 15 μM, and cell volume monitored during the course of the incubation. […]

lymphoblasts = details: with added adenosine and deoxycoformycin; cited from earlier work
methionine metabolism = details: via its adenosyl derivative; cited from earlier work
endothelial cell = details: via copper catalyzed hydrogen peroxide generation; cited from earlier work

[N-]=[N+]=CC(=O)OC[C@H](N)C(=O)O [azaserine]
sites blocked in purine biosynthesis (purine biosynthesis): also block some sites in purine biosynthesis

Nc1ncnc2c1ncn2[C@@H]1O[C@H](CO)[C@@H](O)[C@H]1O [Adenosine]
toxicity of adenosine (L1210 cells [1]; 10 μM alone): not toxic to L1210 cells | toxicity of adenosine with L-homocysteinethiolactone (L1210 cells [1]; 10 μM with non-toxic concentration of L-homocysteinethiolactone): toxic when added together with a non-toxic concentration of L-homocysteinethiolactone | effect of adenosine on SMETH potency (L1210 cells [1]; toxic dose of SMETH): did not increase the potency of a toxic dose of SMETH

Nc1ccn([C@@H]2O[C@H](CO)[C@@H](O)[C@H]2O)c(=O)n1 [Cytidine]
protection from growth inhibition by copper-SMETH (L1210 cells [1]): protected the cells from growth inhibition, and this protection was non-competitive

CSCC[C@H](N)C(=O)O [L-Methionine]
pIC50 (L1210 cells [1]): 2.70

O=S(=O)([O-])[O-].[Cu+2] [copper ion, copper sulfate]
toxicity of the ion itself (L1210 cells [1]; copper ion alone, at much higher levels than micromolar potentiating levels): non -toxic itself at much higher levels | potentiating dose of copper ion (L1210 cells [1]; with SMETH, 40 hours, "more than adequate"): ≤ 10 µM

[Zn+2] [Zn^++]
potentiation of SMETH by other metal ions (L1210 cells [1]): ineffective

CSSCC[C@H](N)C(=O)O [L-SMETH, S-(methylthio)-L-homocysteine]
stereospecificity result with 10 μM copper sulfate (L1210 cells [1]): nearly identical results | activity at 50 µM (L1210 cells [1]; Mus musculus, glutamine 0.5 mM): 15% | activity at 50 µM (L1210 cells [1]; Mus musculus, glutamine 1.0 mM): 31% | activity at 50 µM (L1210 cells [1]; Mus musculus, glutamine 2.0 mM): 58% | activity at 50 µM (L1210 cells [1]; Mus musculus, glutamine 4.0 mM): 98%

[N-]=[N+]=CC(=O)CC[C@H](N)C(=O)O [diazo-oxo-norleucine, 6-diazo-5-oxo-norleucine]
sites blocked in purine biosynthesis (purine biosynthesis): also block some sites in purine biosynthesis

OCCSSCCO [Hydroxyethyl Disulfide (HEDS), Hydroxyethyl Disulfide]
growth promotion and its inhibition by copper ([2]; high copper concentrations): promoted growth, but this was inhibited by high copper concentrations

[Cr+3] [Cr^+++]
potentiation of SMETH by other metal ions (L1210 cells [1]): ineffective

CSSC[C@H](N)C(=O)O [4-thiamethionine, S-(methylthio)-L-cysteine]
growth support with copper ion ([2]; 4TM 50 μM): supported growth which was independent of copper ion concentration | cytotoxicity in the presence of copper ([2]; L1210 primary culture): not cytotoxic in the presence of copper | protection from growth inhibition by copper ([2]; L1210 primary culture): protected L1210 cells in primary culture from growth inhibition by copper

[Ni+2] [Ni^++]
potentiation of SMETH by other metal ions (L1210 cells [1]): ineffective

NC(=O)CC[C@H](N)C(=O)O [Glutamine]
protection against SMETH and SMETH plus Cu++ (L1210 cells [1]; glutamine, millimolar concentrations): protected cells against SMETH and SMETH plug Cu^++

N[C@@H](CCSSCC[C@H](N)C(=O)O)C(=O)O [homocystine]
rate of reaction with silver ion relative to cystine [3]: 267 times

Nc1ncnc2c1ncn2[C@@H]1O[C@H](CSCC[C@H](N)C(=O)O)[C@@H](O)[C@H]1O [S-adenosylhomocysteine]
inhibition of cellular methylations (cellular methylations): potent inhibitor of cellular methylations | inhibition of cellular methylations (cellular methylations; listed as Adenosylhomocysteine): potent inhibitor of cellular methylation processes

CC(C)C[C@H](N)C(=O)O [L-Leucine]
pIC50 (L1210 cells [1]): 3.00

CSSCC[C@@H](N)C(=O)O [D-SMETH]
activity of D-SMETH (L1210 cells [1]; 50 μM with 50 μM copper ion): completely inactive

CCCC[C@H](N)C(=O)O [L-Norleucine]
pIC50 (L1210 cells [1]): 2.60

N[C@H](C(=O)O)[C@@H]1CC(Cl)=NO1 [acivicin, (alphaS,5S)-alpha-amino-3-chloro-4,5-dihydro-5-isoxazoleacetizacid]
sites blocked in purine biosynthesis (purine biosynthesis): also block some sites in purine biosynthesis

[Mn+2] [Mn^++]
potentiation of SMETH by other metal ions (L1210 cells [1]): ineffective

CCSC[C@H](N)C(=O)O [S-Ethyl-L-cysteine]
pIC50 (L1210 cells [1]): 3.00

CSSCCC(N)C(=O)O (racemic) [DL-SMETH, S-(methylthio)-DL-homocysteine]
cell volume change over a two day period (L1210 cells [4]): progressive increase in cell volume | inhibition of cellular proliferation (L1210 cells [1]): potent inhibitor of cellular proliferation | stereospecificity result with 10 μM copper sulfate (L1210 cells [1]): nearly identical results | range of inhibitory concentration of SMETH with copper ion (L1210 cells [1]; 40 hours, copper ion present): both reduced and narrowed in the presence of copper ion | percent inhibition (L1210 cells [1]; DL-SMETH 75 μm alone): 46% | percent inhibition (L1210 cells [1]; DL-SMETH 75 μm plus adenosine 10 μm, deoxycoformycin 20 μm): 46% | minimal effective concentration (L1210 cells [1]; Mus musculus, L1210, 40 hours, without copper, read-out: threshold level): 25 µM | cytotoxicity to L1210 cells (L1210 cells [1]; alone, 40 hours): cytotoxic to L1210 cells in culture when present at a broad range of micromolar concentrations | relative activity of racemic form (vs D-SMETH as printed) (L1210 cells [1]; copper ion 50 μM): half as active as D-SMETH | effect of copper ion on inhibition by SMETH (L1210 cells [1]; threshold SMETH 25 μM with micromolar copper ion, 40 hours): completely inhibitory concentration

O=c1ccn([C@@H]2O[C@H](CO)[C@@H](O)[C@H]2O)c(=O)[nH]1 [Uridine]
protection from growth inhibition by copper-SMETH (L1210 cells [1]): ineffective in such protection

[Co+2] [CO^++]
potentiation of SMETH by other metal ions (L1210 cells [1]): ineffective

N[C@H]1CCSC1=O [L-Homocysteine Thiolactone]
growth block (lymphoblasts): can block growth | percent inhibition (L1210 cells [1]; L-homocysteine thiolactone 200 μM plus adenosine 10 μM, deoxycoformycin 20 μM): 39% | inhibition at 200 µM (L1210 cells [1]; Mus musculus, L1210, L-homocysteine thiolactone 200 μM alone, read-out: percent inhibition): 5%

N[C@@H](CCS)C(=O)O [Homocysteine]
toxicity by blocking methionine metabolism (methionine metabolism): toxic by blocking methionine metabolism | endothelial cell damage (endothelial cell): promote endothelial cell damage

Nc1nc2c(ncn2[C@@H]2O[C@H](CO)[C@@H](O)[C@H]2O)c(=O)[nH]1 [guanosine]
protection from growth inhibition by copper-SMETH (L1210 cells [1]): ineffective in such protection

DL-Isopropionine
pIC50 (L1210 cells [1]): 2.70
